Measurements: ChEMBL document CHEMBL1143961, “Synthesis and antiplatelet activity of ethyl 4-(1-benzyl-1H-indazol-3-yl)benzoate (YD-3) derivatives” (Bioorg Med Chem, 2008)
pIC50: −log10 of the molar value.

Experiments:
Platelet [1] = assay: Inhibition of U46619-induced human platelet aggregation; assay type: functional, cell-based
Platelet [2] = assay: Inhibition of collagen-induced human platelet aggregation; assay type: functional, cell-based
Platelet [3] = assay: Inhibition of thrombin-induced human platelet aggregation; assay type: functional, cell-based
Platelet [4] = assay: Inhibition of SFLLRN-induced human platelet aggregation; assay type: functional, cell-based
Platelet [5] = assay: Inhibition of GYPGKF-induced human platelet aggregation; assay type: functional, cell-based
[6] = molecular target: T1, Proteinase-activated receptor 4 (Homo sapiens) (UniProt Q96RI0); assay: Inhibition of PAR4-mediated GYPGKF-induced ATP release in human platelet assessed per 3*10^8 platelets at 0.1 uM
T1 sequence (whole entry): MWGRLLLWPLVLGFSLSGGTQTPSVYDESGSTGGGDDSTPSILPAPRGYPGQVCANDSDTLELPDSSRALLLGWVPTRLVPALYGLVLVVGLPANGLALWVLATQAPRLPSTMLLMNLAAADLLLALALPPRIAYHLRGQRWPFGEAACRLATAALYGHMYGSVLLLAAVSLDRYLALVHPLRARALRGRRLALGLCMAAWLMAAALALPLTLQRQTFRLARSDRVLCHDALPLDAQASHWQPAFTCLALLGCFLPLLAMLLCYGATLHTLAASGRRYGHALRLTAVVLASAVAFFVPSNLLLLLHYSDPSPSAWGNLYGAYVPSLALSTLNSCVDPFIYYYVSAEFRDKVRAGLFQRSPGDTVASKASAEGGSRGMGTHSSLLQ

[7] = molecular target: T1, Proteinase-activated receptor 4 (Homo sapiens); assay: Inhibition of PAR4-mediated GYPGKF-induced P-selectin expression in human platelet at 0.1 uM
[8] = molecular target: T1, Proteinase-activated receptor 4 (Homo sapiens); assay: Inhibition of PAR4-mediated GYPGKF-induced P-selectin expression in human platelet at 0.05 uM
Platelet [9] = assay: Inhibition of arachidonic acid-stimulated thromboxane B2 formation in human platelet assessed per 3*10^8 platelets at 5 uM; assay type: functional
[10] = molecular target: T1, Proteinase-activated receptor 4 (Homo sapiens); assay: Inhibition of PAR4-mediated GYPGKF-induced ATP release in human platelet assessed per 3*10^8 platelets at 0.2 uM
[11] = molecular target: T1, Proteinase-activated receptor 4 (Homo sapiens); assay: Inhibition of PAR4-mediated GYPGKF-induced ATP release in human platelet assessed per 3*10^8 platelets at 5 uM
[12] = molecular target: T1, Proteinase-activated receptor 4 (Homo sapiens); assay: Inhibition of PAR4-mediated GYPGKF-induced P-selectin expression in human platelet at 5 uM
Platelet [13] = assay: Inhibition of arachidonic acid-stimulated thromboxane B2 formation in human platelet at 5 uM; assay type: functional
[14] = molecular target: T1, Proteinase-activated receptor 4 (Homo sapiens); assay: Inhibition of PAR4-mediated GYPGKF-induced ATP release in human platelet assessed per 3*10^8 platelets at 1 uM
[15] = molecular target: T1, Proteinase-activated receptor 4 (Homo sapiens); assay: Inhibition of PAR4-mediated GYPGKF-induced P-selectin expression in human platelet at 1 uM

Structure (SMILES)	pIC50 (Platelet [1])	pIC50 (Platelet [2])	pIC50 (Platelet [3])	pIC50 (Platelet [4])	pIC50 (Platelet [5])	Activity [6] [ng]	inhibition [7] [%]	inhibition [8] [%]	Activity [10] [ng]	Activity [11] [ng]	inhibition [12] [%]	Activity [14] [ng]	inhibition [15] [%]	Activity (Platelet [9]) [ng]	inhibition at 5 µM (Platelet [13]) [%]
CCOC(=O)c1ccc(-c2nn(CC)c3ccccc23)cc1	< 5.00	< 5.00	< 5.00	< 5.00	6.44										
OCc1ccc(-c2nn(Cc3ccccc3)c3ccccc23)cc1	< 5.00	< 5.00	< 5.00	< 5.00	< 5.00										
CCOC(=O)c1ccc(-c2nn(Cc3ccco3)c3ccccc23)cc1	< 5.00	< 5.00	< 5.00	< 5.00	6.47										
CCOC(=O)c1cccc(-c2nn(Cc3ccccc3)c3ccccc23)c1	< 5.00	< 5.00	< 5.00	< 5.00	< 5.00										
CCOC(=O)c1ccc(-c2nn(Cc3cccc(OC)c3)c3ccccc23)cc1	< 5.00	< 5.00	< 5.00	< 5.00	6.59										
CCOC(=O)/C=C/c1ccc(-c2nn(Cc3ccccc3)c3ccccc23)cc1	< 5.00	< 5.00	< 5.00	< 5.00	< 5.00										
CCOC(=O)c1ccc(-c2c3ccccc3nn2Cc2ccccc2)cc1	< 5.00	< 5.00	< 5.00	< 5.00	< 5.00										
CCOC(=O)c1ccc(-c2nn(Cc3ccc(Cl)cc3)c3ccccc23)cc1	< 5.00	< 5.00	< 5.00	< 5.00	6.92										
CCOC(=O)c1ccc(-c2nn(-c3ccccc3)c3ccccc23)cc1	< 5.00	5.32	< 5.00	< 5.00	5.58					1.8	1.6			24.4	98.5
CC(C)OC(=O)c1ccc(-c2nn(Cc3ccccc3)c3ccccc23)cc1	< 5.00	< 5.00	< 5.00	< 5.00	< 5.00										
CO/N=C\c1ccc(-c2nn(Cc3ccccc3)c3ccccc23)cc1	< 5.00	< 5.00	< 5.00	< 5.00	< 5.00										
CCNC(=O)c1ccc(-c2nn(Cc3ccccc3)c3ccccc23)cc1	< 5.00	< 5.00	< 5.00	< 5.00	5.25										
CCOC(=O)c1ccc(-c2nn(Cc3ccc(OC)cc3)c3ccccc23)cc1	< 5.00	< 5.00	< 5.00	< 5.00	6.21										
CC(C)NC(=O)c1ccc(-c2nn(Cc3ccccc3)c3ccccc23)cc1	< 5.00	< 5.00	< 5.00	< 5.00	< 5.00										
CCOC(=O)c1ccc(-c2nn(Cc3cccnc3)c3ccccc23)cc1	< 5.00	< 5.00	< 5.00	< 5.00	5.26										
CCOC(=O)c1ccc(-c2nn(Cc3ccoc3)c3ccccc23)cc1	< 5.00	< 5.00	< 5.00	< 5.00	6.24										
CCOC(=O)c1ccc(-c2nn(C(C)C)c3ccccc23)cc1	< 5.00	< 5.00	< 5.00	< 5.00	6.19										
CCCOC(=O)c1ccc(-c2nn(Cc3ccccc3)c3ccccc23)cc1	< 5.00	< 5.00	< 5.00	< 5.00	< 5.00										
CCOC(=O)c1ccc(-c2nn(Cc3ccccn3)c3ccccc23)cc1	< 5.00	< 5.00	< 5.00	< 5.00	6.54							3.7	1.2	1013.7	
CNC(=O)c1ccc(-c2nn(Cc3ccccc3)c3ccccc23)cc1	< 5.00	< 5.00	< 5.00	< 5.00	< 5.00										
CCOC(=O)c1ccc(-c2nn(Cc3ccncc3)c3ccccc23)cc1	< 5.00	< 5.00	< 5.00	< 5.00	5.25										
CCOC(=O)c1ccc(-c2nn(Cc3cccc(Cl)c3)c3ccccc23)cc1	< 5.00	< 5.00	< 5.00	< 5.00	7.10	58.9	5.2	39.3	8.9					1368.4	
CCOC(=O)c1ccc(-c2nn(Cc3ccccc3OC)c3ccccc23)cc1	< 5.00	< 5.00	< 5.00	< 5.00	6.33										
CCOC(=O)c1ccc(-c2nn(Cc3ccccc3F)c3ccccc23)cc1	< 5.00	< 5.00	< 5.00	< 5.00	6.96										

The next lines start with results.

pIC50 (Platelet [1])	pIC50 (Platelet [2])	pIC50 (Platelet [3])	pIC50 (Platelet [4])	pIC50 (Platelet [5])	Activity [6] [ng]	inhibition [7] [%]	inhibition [8] [%]	Activity [10] [ng]	Activity [11] [ng]	inhibition [12] [%]	Activity [14] [ng]	inhibition [15] [%]	Structure (SMILES)	Activity (Platelet [9]) [ng]	inhibition at 5 µM (Platelet [13]) [%]
< 5.00	< 5.00	< 5.00	< 5.00	6.57									CCOC(=O)c1ccc(-c2nn(C)c3ccccc23)cc1		
< 5.00	< 5.00	< 5.00	< 5.00	6.25									COC(=O)c1ccc(-c2nn(Cc3ccccc3)c3ccccc23)cc1		
< 5.00	< 5.00	< 5.00	< 5.00	< 5.00									O=C(O)c1ccc(-c2nn(Cc3ccccc3)c3ccccc23)cc1		
< 5.00	5.02	< 5.00	< 5.00	< 5.00									CCCNC(=O)c1ccc(-c2nn(Cc3ccccc3)c3ccccc23)cc1		
< 5.00	< 5.00	< 5.00	< 5.00	< 5.00									NC(=O)c1ccc(-c2nn(Cc3ccccc3)c3ccccc23)cc1		
< 5.00	< 5.00	< 5.00	< 5.00	6.89	74.4	7.7	67.2	12.7					CCOC(=O)c1ccc(-c2nn(Cc3ccccc3)c3ccccc23)cc1	1408.3	
< 5.00	< 5.00	< 5.00	< 5.00	6.57									CCOC(=O)c1ccc(-c2nn(Cc3cccc(F)c3)c3ccccc23)cc1		
< 5.00	< 5.00	< 5.00	< 5.00	6.17									CCCCn1nc(-c2ccc(C(=O)OCC)cc2)c2ccccc21		
< 5.00	< 5.00	< 5.00	< 5.00	6.72									CCOC(=O)c1ccc(-c2nn(Cc3ccc(F)cc3)c3ccccc23)cc1		
< 5.00	< 5.00	< 5.00	< 5.00	6.64									CCOC(=O)c1ccc(-c2nn(Cc3ccccc3Cl)c3ccccc23)cc1		
< 5.00	< 5.00	< 5.00	< 5.00	6.31									CCCn1nc(-c2ccc(C(=O)OCC)cc2)c2ccccc21		
